Values joined by “and” are separate entries in the source; they are usually repeats but may differ in a detail not shown here. Equal values may be shown once. “Also recorded” adds a separate entry of the source. Where a SMILES comes first, the peptide text is derived from it. [ ]: non-standard residue; d: D form. Hyp = O=C(O)[C@@H]1C[C@@H](O)CN1
Tested on: human PBMCs
Assay: PBMC cell counts (total, live, viability; trypan blue, Countess) with and without LPS and test articles (Example 9)
Assay type: cell-based
Outline: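 Human PBMCs were pretreated 2 h with test articles (0.001–100 uM) or 0.5% DMSO vehicle, then given LPS at 5 ug/ml or no LPS, in triplicate. After 24 hr, total and live cells and viability were counted by 1:1 trypan blue staining on an automated counter.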

[1] = PBMC + LPS(5 ug/ml), test article 100 uM, Mean
[2] = PBMC + LPS(5 ug/ml), test article 100 uM, single replicates
[3] = PBMC + compound 0.01 uM, no LPS, 24 hr
[4] = PBMC + compound 0.1 uM, no LPS, 24 hr
[5] = PBMC + compound 1 uM, no LPS, 24 hr
[6] = PBMC + compound 10 uM, no LPS, 24 hr
[7] = PBMC + compound 100 uM, no LPS, 24 hr
[8] = PBMC + test article 0.01 uM, no LPS, Mean
[9] = PBMC + test article 0.01 uM, no LPS, single replicates
[10] = PBMC + test article 0.1 uM, no LPS, Mean
[11] = PBMC + test article 0.1 uM, no LPS, single replicates
[12] = PBMC + test article 1 uM, no LPS, Mean
[13] = PBMC + test article 1 uM, no LPS, single replicates
[14] = PBMC + test article 10 uM, no LPS, Mean
[15] = PBMC + test article 10 uM, no LPS, single replicates
[16] = PBMC + test article 100 uM, no LPS, Mean
[17] = PBMC + test article 100 uM, no LPS, single replicates
[18] = PBMC without LPS, test article 0.01 uM, Mean
[19] = PBMC without LPS, test article 0.01 uM, single replicates
[20] = PBMC without LPS, test article 0.1 uM, Mean
[21] = PBMC without LPS, test article 0.1 uM, single replicates
[22] = PBMC without LPS, test article 1 uM, Mean
[23] = PBMC without LPS, test article 1 uM, single replicates
[24] = PBMC without LPS, test article 10 uM, Mean
[25] = PBMC without LPS, test article 10 uM, single replicates
[26] = PBMC without LPS, test article 100 uM, Mean
[27] = PBMC without LPS, test article 100 uM, single replicates

## CC(C)C[C@H](NC(=O)CNC(=O)[C@H](CC(=O)O)NC(=O)[C@H](CCC(N)=O)NC(=O)CNC(=O)[C@@H]1C[C@@H](O)CN1)C(=O)N[C@@H](C)C(=O)NCC(=O)N1CCC[C@H]1C(=O)N[C@@H](CCCCN)C(=O)O [YY-101] (H-[Hyp]GQDGLAGPK-OH; N-terminus and C-terminus assumed)
[1]
  Live cell: 5.8 10^5/ml
  Total cell count: 7.8 10^5/ml
[2]
  Live cell: 6.3 10^5/ml and 6.2 10^5/ml and 5.0 10^5/ml
  Total cell count: 8.7 10^5/ml and 8.8 10^5/ml and 5.8 10^5/ml
  Viability: 73.0% and 70.0% and 87.0%
[3]
  Live cell: 5.0 ± 0.2 10^5/ml
  Total cell: 5.9 ± 0.4 10^5/ml
[4]
  Live cell: 5.1 ± 0.2 10^5/ml
  Total cell: 6.1 ± 0.8 10^5/ml
[5]
  Live cell: 5.5 ± 0.0 10^5/ml
  Total cell: 6.1 ± 0.2 10^5/ml
[6]
  Live cell: 6.3 ± 0.2 10^5/ml
  Total cell: 7.4 ± 0.3 10^5/ml
[7]
  Live cell: 6.7 ± 0.3 10^5/ml
  Total cell: 7.8 ± 0.5 10^5/ml
[8]
  Live cell: 5.0 10^5/ml
  Live cell (10^5/ml): 5.0 10^5/ml
  Live cell, Mean: 5.0 10^5/ml
PBMC + test article 0.01 uM, no LPS, individual replicates (1st, 2nd)
  Live cell: 5.2 10^5/ml and 4.8 10^5/ml
[9]
  Live cell: 5.2 10^5/ml and 4.8 10^5/ml
  Live cell (10^5/ml): 5.2 10^5/ml and 4.8 10^5/ml
PBMC + test article 0.01 uM, no LPS, single replicates (1st, 2nd)
  Live cell: 5.2 10^5/ml and 4.8 10^5/ml
[10]
  Live cell: 5.1 10^5/ml
  Live cell (10^5/ml): 5.1 10^5/ml
  Live cell, Mean: 5.1 10^5/ml
PBMC + test article 0.1 uM, no LPS, individual replicates (1st, 2nd)
  Live cell: 4.4 10^5/ml and 5.8 10^5/ml
[11]
  Live cell: 4.4 10^5/ml and 5.8 10^5/ml
  Live cell (10^5/ml): 4.4 10^5/ml and 5.8 10^5/ml
PBMC + test article 0.1 uM, no LPS, single replicates (1st, 2nd)
  Live cell: 4.4 10^5/ml and 5.8 10^5/ml
[12]
  Live cell: 5.5 10^5/ml
  Live cell (10^5/ml): 5.5 10^5/ml
  Live cell, Mean: 5.5 10^5/ml
PBMC + test article 1 uM, no LPS, individual replicates (1st, 2nd)
  Live cell: 5.5 10^5/ml
[13]
  Live cell: 5.5 10^5/ml
  Live cell (10^5/ml): 5.5 10^5/ml
PBMC + test article 1 uM, no LPS, single replicates (1st, 2nd)
  Live cell: 5.5 10^5/ml
[14]
  Live cell: 6.3 10^5/ml
  Live cell (10^5/ml): 6.3 10^5/ml
  Live cell, Mean: 6.3 10^5/ml
PBMC + test article 10 uM, no LPS, individual replicates (1st, 2nd)
  Live cell: 6.4 10^5/ml and 6.1 10^5/ml
[15]
  Live cell: 6.4 10^5/ml and 6.1 10^5/ml
  Live cell (10^5/ml): 6.4 10^5/ml and 6.1 10^5/ml
PBMC + test article 10 uM, no LPS, single replicates (1st, 2nd)
  Live cell: 6.4 10^5/ml and 6.1 10^5/ml
[16]
  Live cell: 6.7 10^5/ml
  Live cell (10^5/ml): 6.7 10^5/ml
  Live cell, Mean: 6.7 10^5/ml
PBMC + test article 100 uM, no LPS, individual replicates (1st, 2nd)
  Live cell: 6.4 10^5/ml and 7.0 10^5/ml
[17]
  Live cell: 6.4 10^5/ml and 7.0 10^5/ml
  Live cell (10^5/ml): 6.4 10^5/ml and 7.0 10^5/ml
PBMC + test article 100 uM, no LPS, single replicates (1st, 2nd)
  Live cell: 6.4 10^5/ml and 7.0 10^5/ml
PBMC without LPS, 0.01 uM, Mean
  Live cell: 5.0 10^5/ml
PBMC without LPS, 0.01 uM, single replicates
  Live cell: 5.2 10^5/ml and 4.8 10^5/ml
PBMC without LPS, 0.1 uM, Mean
  Live cell: 5.1 10^5/ml
PBMC without LPS, 0.1 uM, single replicates
  Live cell: 4.4 10^5/ml and 5.8 10^5/ml
PBMC without LPS, 1 uM, Mean
  Live cell: 5.5 10^5/ml
PBMC without LPS, 1 uM, single replicates
  Live cell: 5.5 10^5/ml
PBMC without LPS, 10 uM, Mean
  Live cell: 6.3 10^5/ml
PBMC without LPS, 10 uM, single replicates
  Live cell: 6.4 10^5/ml and 6.1 10^5/ml
PBMC without LPS, 100 uM, Mean
  Live cell: 6.7 10^5/ml
PBMC without LPS, 100 uM, single replicates
  Live cell: 6.4 10^5/ml and 7.0 10^5/ml
[18]
  Live cell: 5.0 10^5/ml
  Total cell count: 5.9 10^5/ml
[19]
  Live cell: 5.2 10^5/ml and 4.8 10^5/ml
  Total cell count: 6.3 10^5/ml and 5.5 10^5/ml
  Viability: 83.0% and 87.0%
[20]
  Live cell: 5.1 10^5/ml
  Total cell count: 6.1 10^5/ml
  Viability: 84.0%
[21]
  Live cell: 4.4 10^5/ml and 5.8 10^5/ml
  Total cell count: 5.2 10^5/ml and 6.9 10^5/ml
  Viability: 84.0%
[22]
  Live cell: 5.5 10^5/ml
  Total cell count: 6.1 10^5/ml
[23]
  Live cell: 5.5 10^5/ml
  Total cell count: 5.9 10^5/ml and 6.3 10^5/ml
  Viability: 92.0% and 87.0%
[24]
  Live cell: 6.3 10^5/ml
  Total cell count: 7.4 10^5/ml
[25]
  Live cell: 6.4 10^5/ml and 6.1 10^5/ml
  Total cell count: 7.6 10^5/ml and 7.1 10^5/ml
  Viability: 85.0% and 87.0%
[26]
  Live cell: 6.7 10^5/ml
  Total cell count: 7.8 10^5/ml
[27]
  Live cell: 6.4 10^5/ml and 7.0 10^5/ml
  Total cell count: 7.3 10^5/ml and 8.2 10^5/ml
  Viability: 88.0% and 85.0%
Up to 100 μM
  viability / total number of PBMCs (in words): didn't affect the basal levels of most of cytokine/chemokine production or the viability of hPBMCs; also recorded: didn't affect any viability or the total number of PBMCs
Up to 100 μM, 24-hour treatment
  which treatments consistently affected the total and live number of PBMCs or the percent viability (in words): none of

— patent publication US20230146455A1, “TREATMENT OF INFLAMMATORY DISEASES WITH PEPTIDES AND PHARMACEUTICAL COMPOSITIONS” (Yuyu Pharma, Inc., priority 2020, published 2023)
